Assays:
Test in all cases: biochemical
Set-up in all cases: DiscoveRx KINOMEscan competition binding, percent of DMSO control signal at 100 nM
Settings in all cases: read-out: Fig. 4a / Percent Control / Compound 1; percent of DMSO control, competition binding
WEE2 = WEE2 (Homo sapiens, UniProt P0C1S8)
EGFR = EGFR (Homo sapiens, UniProt P00533)
PLK4 = PLK4 (Homo sapiens, UniProt O00444)
AMPK-alpha2 = target: T1, AMPK-alpha2 (Homo sapiens, UniProt P54646)
T1 construct: gene PRKAA2

IRAK3 = IRAK3 (Homo sapiens, UniProt Q9Y616)
ARK5 = target: T2, ARK5 (Homo sapiens, UniProt O60285)
T2 construct: gene NUAK1

CSNK1A1L = CSNK1A1L (Homo sapiens, UniProt Q8N752)
Chain of CSNK1A1L (Q8N752 whole entry): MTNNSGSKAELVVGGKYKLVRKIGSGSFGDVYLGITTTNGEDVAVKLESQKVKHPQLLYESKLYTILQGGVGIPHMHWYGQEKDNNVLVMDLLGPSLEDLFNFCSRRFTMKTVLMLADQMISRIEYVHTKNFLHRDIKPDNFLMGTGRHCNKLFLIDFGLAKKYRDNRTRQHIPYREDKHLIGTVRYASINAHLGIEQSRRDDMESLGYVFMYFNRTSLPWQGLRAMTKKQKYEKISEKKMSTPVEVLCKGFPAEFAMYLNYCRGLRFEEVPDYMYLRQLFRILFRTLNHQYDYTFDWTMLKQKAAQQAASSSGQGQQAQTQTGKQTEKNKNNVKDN

AXL = AXL (Homo sapiens, UniProt P30530)
Chain of AXL (P30530 whole entry): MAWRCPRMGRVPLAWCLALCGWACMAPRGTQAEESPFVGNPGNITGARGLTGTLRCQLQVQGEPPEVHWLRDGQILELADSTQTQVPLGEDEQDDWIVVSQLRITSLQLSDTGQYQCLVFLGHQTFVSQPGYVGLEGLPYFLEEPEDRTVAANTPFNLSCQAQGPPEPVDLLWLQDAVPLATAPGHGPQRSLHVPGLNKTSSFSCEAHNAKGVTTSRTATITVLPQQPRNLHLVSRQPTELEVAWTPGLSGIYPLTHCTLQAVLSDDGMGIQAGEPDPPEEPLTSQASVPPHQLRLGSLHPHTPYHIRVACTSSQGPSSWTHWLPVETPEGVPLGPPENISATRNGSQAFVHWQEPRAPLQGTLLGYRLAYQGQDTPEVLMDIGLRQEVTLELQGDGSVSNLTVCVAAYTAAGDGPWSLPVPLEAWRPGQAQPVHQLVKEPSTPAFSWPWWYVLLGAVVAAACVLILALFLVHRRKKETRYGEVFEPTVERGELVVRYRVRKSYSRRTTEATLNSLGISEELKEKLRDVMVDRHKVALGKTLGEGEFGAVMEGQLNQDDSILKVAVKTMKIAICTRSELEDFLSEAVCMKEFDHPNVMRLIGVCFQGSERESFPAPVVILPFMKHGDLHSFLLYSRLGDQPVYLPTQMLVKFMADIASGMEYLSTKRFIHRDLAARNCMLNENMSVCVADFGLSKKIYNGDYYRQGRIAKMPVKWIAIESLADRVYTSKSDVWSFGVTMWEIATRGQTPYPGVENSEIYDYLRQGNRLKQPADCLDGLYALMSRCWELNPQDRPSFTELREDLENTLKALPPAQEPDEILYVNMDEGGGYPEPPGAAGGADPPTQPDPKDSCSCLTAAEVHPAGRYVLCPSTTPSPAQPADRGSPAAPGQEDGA

PFTAIRE2 = target: T3, PFTAIRE2 (Homo sapiens, UniProt Q96Q40)
T3 construct: gene CDK15

PIK3CA(H1047L) = PIK3CA(H1047L) (Homo sapiens, UniProt P42336, H1047L)
Chain of PIK3CA(H1047L) (P42336 whole entry H1047L): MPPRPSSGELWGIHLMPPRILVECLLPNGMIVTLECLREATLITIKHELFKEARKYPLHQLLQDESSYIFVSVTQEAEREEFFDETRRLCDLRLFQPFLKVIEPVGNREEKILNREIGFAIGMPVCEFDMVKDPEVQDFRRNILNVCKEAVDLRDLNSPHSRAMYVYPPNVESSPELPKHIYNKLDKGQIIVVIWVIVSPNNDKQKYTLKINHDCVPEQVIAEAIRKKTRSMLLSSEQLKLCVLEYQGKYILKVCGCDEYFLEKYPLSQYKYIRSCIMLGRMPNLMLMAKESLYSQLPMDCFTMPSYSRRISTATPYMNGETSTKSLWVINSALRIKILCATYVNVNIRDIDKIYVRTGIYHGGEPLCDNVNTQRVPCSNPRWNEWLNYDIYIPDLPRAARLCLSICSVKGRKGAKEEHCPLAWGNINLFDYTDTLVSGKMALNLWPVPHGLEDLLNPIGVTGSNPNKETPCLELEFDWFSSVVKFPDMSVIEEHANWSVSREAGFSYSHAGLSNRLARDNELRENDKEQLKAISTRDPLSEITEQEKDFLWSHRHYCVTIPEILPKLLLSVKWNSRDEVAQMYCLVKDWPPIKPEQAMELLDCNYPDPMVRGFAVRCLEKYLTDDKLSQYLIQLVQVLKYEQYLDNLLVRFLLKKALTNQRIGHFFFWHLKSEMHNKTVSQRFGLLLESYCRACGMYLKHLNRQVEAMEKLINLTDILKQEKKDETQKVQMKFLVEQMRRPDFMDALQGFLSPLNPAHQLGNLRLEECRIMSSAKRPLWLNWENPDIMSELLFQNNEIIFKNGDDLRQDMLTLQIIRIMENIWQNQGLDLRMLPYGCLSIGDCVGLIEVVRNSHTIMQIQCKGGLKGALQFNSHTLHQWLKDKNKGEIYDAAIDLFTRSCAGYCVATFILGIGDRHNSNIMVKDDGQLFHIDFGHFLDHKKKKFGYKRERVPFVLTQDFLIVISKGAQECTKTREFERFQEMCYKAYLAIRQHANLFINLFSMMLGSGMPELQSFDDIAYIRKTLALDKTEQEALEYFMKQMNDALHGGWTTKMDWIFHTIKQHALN

DAPK2 = DAPK2 (Homo sapiens, UniProt Q9UIK4)
EPHB1 = EPHB1 (Homo sapiens, UniProt P54762)
MAPKAPK2 = MAPKAPK2 (Homo sapiens, UniProt P49137)
TAOK3 = TAOK3 (Homo sapiens, UniProt Q9H2K8)
CAMK2B = CAMK2B (Homo sapiens, UniProt Q13554)
MAP3K1 = MAP3K1 (Homo sapiens, UniProt Q13233)
Chain of MAP3K1 (Q13233 whole entry): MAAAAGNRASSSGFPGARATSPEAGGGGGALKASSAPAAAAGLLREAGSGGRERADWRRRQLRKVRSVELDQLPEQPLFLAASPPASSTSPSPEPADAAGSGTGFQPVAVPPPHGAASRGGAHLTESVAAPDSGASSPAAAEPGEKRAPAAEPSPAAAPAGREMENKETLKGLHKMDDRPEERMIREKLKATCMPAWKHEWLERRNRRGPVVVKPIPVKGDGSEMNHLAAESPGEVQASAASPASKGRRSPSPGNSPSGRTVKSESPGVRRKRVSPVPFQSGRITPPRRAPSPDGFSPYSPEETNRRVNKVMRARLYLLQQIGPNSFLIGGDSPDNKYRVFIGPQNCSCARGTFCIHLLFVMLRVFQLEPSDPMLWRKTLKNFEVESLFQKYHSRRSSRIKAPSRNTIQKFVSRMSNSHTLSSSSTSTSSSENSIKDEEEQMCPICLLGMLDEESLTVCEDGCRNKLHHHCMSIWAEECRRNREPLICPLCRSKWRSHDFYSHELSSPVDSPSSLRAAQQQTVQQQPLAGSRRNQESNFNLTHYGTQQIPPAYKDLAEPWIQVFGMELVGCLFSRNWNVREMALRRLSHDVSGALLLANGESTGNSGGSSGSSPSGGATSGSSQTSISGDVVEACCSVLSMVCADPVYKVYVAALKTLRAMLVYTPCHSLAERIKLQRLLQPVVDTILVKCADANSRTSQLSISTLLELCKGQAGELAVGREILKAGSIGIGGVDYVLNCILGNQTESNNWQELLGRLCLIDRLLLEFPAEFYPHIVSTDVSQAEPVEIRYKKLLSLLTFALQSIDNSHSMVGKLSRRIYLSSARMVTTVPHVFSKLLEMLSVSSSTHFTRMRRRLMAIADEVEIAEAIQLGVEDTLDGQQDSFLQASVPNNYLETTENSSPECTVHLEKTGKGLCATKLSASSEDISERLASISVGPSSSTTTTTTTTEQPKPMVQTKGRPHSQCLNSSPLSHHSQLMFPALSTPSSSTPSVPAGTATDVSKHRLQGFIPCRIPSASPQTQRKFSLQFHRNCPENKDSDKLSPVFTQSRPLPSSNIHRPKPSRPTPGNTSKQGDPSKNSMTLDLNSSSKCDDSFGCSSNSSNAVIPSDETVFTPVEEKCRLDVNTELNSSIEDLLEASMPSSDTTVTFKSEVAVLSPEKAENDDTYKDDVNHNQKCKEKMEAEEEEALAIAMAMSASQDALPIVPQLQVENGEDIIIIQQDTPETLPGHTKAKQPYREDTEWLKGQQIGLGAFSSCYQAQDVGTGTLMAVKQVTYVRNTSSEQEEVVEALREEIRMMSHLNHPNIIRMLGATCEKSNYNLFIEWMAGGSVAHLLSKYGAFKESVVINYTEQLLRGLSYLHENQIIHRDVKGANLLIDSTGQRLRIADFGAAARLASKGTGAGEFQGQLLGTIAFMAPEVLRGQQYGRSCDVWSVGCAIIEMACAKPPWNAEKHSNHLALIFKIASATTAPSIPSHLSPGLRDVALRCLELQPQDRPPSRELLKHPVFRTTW

MST1R = MST1R (Homo sapiens, UniProt Q04912)
MEK3 = target: T4, MEK3 (Homo sapiens, UniProt P46734)
T4 construct: gene MAP2K3
T4 sequence (P46734 whole entry): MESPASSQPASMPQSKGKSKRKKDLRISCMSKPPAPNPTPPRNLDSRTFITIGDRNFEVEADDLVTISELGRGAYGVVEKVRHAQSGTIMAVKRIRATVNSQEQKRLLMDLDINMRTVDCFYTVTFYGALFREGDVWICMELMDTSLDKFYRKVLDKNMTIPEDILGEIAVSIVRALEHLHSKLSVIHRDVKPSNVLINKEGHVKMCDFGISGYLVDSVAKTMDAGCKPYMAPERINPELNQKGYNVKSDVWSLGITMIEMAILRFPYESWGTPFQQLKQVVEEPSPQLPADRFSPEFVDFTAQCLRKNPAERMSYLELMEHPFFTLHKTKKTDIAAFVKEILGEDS

PHKG1 = PHKG1 (Homo sapiens, UniProt Q16816)
CTK = target: T5, CTK (Homo sapiens, UniProt P42679)
T5 construct: gene MATK

FLT3(ITD) = FLT3(ITD) (Homo sapiens, UniProt P36888, ITD)
FLT3(D835Y) = FLT3(D835Y) (Homo sapiens, UniProt P36888, D835Y)
WEE1 = WEE1 (Homo sapiens, UniProt P30291)
ERK1 = target: T6, ERK1 (Homo sapiens, UniProt P27361)
T6 construct: gene MAPK3

INSR = INSR (Homo sapiens, UniProt P06213)
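Further: KINOMEscan kinase panel binding assay, signal normalized between DMSO as 100% and a positive control compound as 0%.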

T1 sequence (P54646 whole entry): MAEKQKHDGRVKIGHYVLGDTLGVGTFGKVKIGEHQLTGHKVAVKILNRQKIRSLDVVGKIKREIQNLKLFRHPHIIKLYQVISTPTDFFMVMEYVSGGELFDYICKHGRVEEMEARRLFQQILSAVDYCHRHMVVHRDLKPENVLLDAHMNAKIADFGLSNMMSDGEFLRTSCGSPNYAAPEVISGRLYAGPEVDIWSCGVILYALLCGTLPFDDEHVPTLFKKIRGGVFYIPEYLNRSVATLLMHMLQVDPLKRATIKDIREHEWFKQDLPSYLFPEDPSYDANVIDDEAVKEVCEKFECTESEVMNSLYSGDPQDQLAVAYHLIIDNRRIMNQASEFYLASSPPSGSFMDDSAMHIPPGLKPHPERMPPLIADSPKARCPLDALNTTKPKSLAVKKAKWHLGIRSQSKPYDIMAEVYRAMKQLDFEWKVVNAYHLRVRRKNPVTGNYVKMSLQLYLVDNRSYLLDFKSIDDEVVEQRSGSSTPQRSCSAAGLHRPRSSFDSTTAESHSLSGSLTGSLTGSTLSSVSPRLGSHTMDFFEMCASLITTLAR

Cc1cnc2nc1Nc1cccc(c1)COCc1cc(ccc1OCCN1CCCC1)N2 [Compound 1]
remaining binding at 0.1 µM (WEE2): 78% | remaining binding at 0.1 µM (EGFR): 81% | remaining binding at 0.1 µM (PLK4): 96% | remaining binding at 0.1 µM (AMPK-alpha2): 97% | remaining binding at 0.1 µM (IRAK3): 53% | remaining binding at 0.1 µM (ARK5): 51% | remaining binding at 0.1 µM (CSNK1A1L): 61% | remaining binding at 0.1 µM (AXL): 90% | remaining binding at 0.1 µM (PFTAIRE2): 85% | remaining binding at 0.1 µM (PIK3CA(H1047L)): 74% | remaining binding at 0.1 µM (DAPK2): 98% | remaining binding at 0.1 µM (EPHB1): 97% | remaining binding at 0.1 µM (MAPKAPK2): 100% | remaining binding at 0.1 µM (TAOK3): 56% | remaining binding at 0.1 µM (CAMK2B): 94% | remaining binding at 0.1 µM (MAP3K1): 79% | remaining binding at 0.1 µM (MST1R): 100% | remaining binding at 0.1 µM (MEK3): 76% | remaining binding at 0.1 µM (PHKG1): 87% | remaining binding at 0.1 µM (CTK): 97% | remaining binding at 0.1 µM (FLT3(ITD)): 17% | remaining binding at 0.1 µM (FLT3(D835Y)): 14% | remaining binding at 0.1 µM (WEE1): 90% | remaining binding at 0.1 µM (ERK1): 100% | remaining binding at 0.1 µM (INSR): 84%

Source: PMC10382584, “Macrocyclization of linear molecules by deep learning to facilitate macrocyclic drug candidates discovery” (Nature Communications, 2023)
